According to ChEMBL document CHEMBL1649497, “Comparison of the pharmacodynamics of biapenem in bronchial epithelial lining fluid in healthy volunteers given half-hour and three-hour intravenous infusions” (Antimicrob Agents Chemother, 2009):

Experiments:
[1] = T>MIC in healthy human at epithelial lining fluid MIC of 0.5 ug/ml and compound dose of 0.3 […], iv after 0.5 hrs; type: functional
[2] = Cmax in epithelial lining fluid of healthy human at 0.3 […], iv after 0.5 hrs; type: ADME, organism-based; set-up: route intravenous
[3] = T>MIC in healthy human at plasma MIC of 2 ug/ml and compound dose of 0.3 […], iv after 3 hrs; type: functional
[4] = T>MIC in healthy human at epithelial lining fluid MIC of 1 ug/ml and compound dose of 0.3 […], iv after 3 hrs; type: functional
[5] = Tmax in plasma of healthy human at 0.3 […], iv after 0.5 hrs; type: ADME, organism-based
[6] = Cmax in plasma of healthy human at 0.3 […], iv after 3 hrs; type: ADME, organism-based; set-up: route intravenous
[7] = T>MIC in healthy human at epithelial lining fluid MIC of 2 ug/ml and compound dose of 0.3 […], iv after 0.5 hrs; type: functional
[8] = T>MIC in healthy human at epithelial lining fluid MIC of 0.5 ug/ml and compound dose of 0.3 […], iv after 3 hrs; type: functional
[9] = Cmax in plasma of healthy human at 0.3 […], iv after 0.5 hrs; type: ADME, organism-based; set-up: route intravenous
[10] = T>MIC in healthy human at plasma MIC of 1 ug/ml and compound dose of 0.3 […], iv after 0.5 hrs; type: functional
[11] = T>MIC in healthy human at plasma MIC of 0.5 ug/ml and compound dose of 0.3 […], iv after 0.5 hrs; type: functional
[12] = T>MIC in healthy human at plasma MIC of 0.25 ug/ml and compound dose of 0.3 […], iv after 0.5 hrs; type: functional
[13] = AUC in plasma of healthy human at 0.3 […], iv after 3 hrs; type: ADME, organism-based; set-up: time < 3 hr, route intravenous
[14] = T>MIC in healthy human at epithelial lining fluid MIC of 1 ug/ml and compound dose of 0.3 […], iv after 0.5 hrs; type: functional
[15] = T>MIC in healthy human at plasma MIC of 2 ug/ml and compound dose of 0.3 […], iv after 0.5 hrs; type: functional
[16] = AUC in epithelial lining fluid of healthy human at 0.3 […], iv after 3 hrs; type: ADME, organism-based; set-up: time < 3 hr, route intravenous
[17] = Drug level in epithelial lining fluid of healthy human at 0.3 […], iv after 0.5 hrs; type: ADME, organism-based; settings: read-out: Drug uptake
[18] = Tmax in epithelial lining fluid of healthy human at 0.3 […], iv after 0.5 hrs; type: ADME, organism-based
[19] = T>MIC in healthy human at epithelial lining fluid MIC of 4 ug/ml and compound dose of 0.3 […], iv after 0.5 hrs; type: functional
[20] = AUC in plasma of healthy human at 0.3 […], iv after 0.5 hrs; type: ADME, organism-based; set-up: time < 0.5 hr, route intravenous
[21] = T>MIC in healthy human at plasma MIC of 0.5 ug/ml and compound dose of 0.3 […], iv after 3 hrs; type: functional
[22] = Tmax in epithelial lining fluid of healthy human at 0.3 […], iv after 3 hrs; type: ADME, organism-based
[23] = Cmax in epithelial lining fluid of healthy human at 0.3 […], iv after 3 hrs; type: ADME, organism-based; set-up: route intravenous
[24] = T>MIC in healthy human at plasma MIC of 4 ug/ml and compound dose of 0.3 […], iv after 3 hrs; type: functional
[25] = T>MIC in healthy human at epithelial lining fluid MIC of 0.5 ug/ml and compound dose of 0.3 […], iv after […] hrs; type: functional
[26] = Tmax in plasma of healthy human at 0.3 […], iv after 3 hrs; type: ADME, organism-based
[27] = T>MIC in healthy human at epithelial lining fluid MIC of 4 ug/ml and compound dose of 0.3 […], iv after 3 hrs; type: functional
[28] = T>MIC in healthy human at epithelial lining fluid MIC of 0.25 ug/ml and compound dose of 0.3 […], iv after 3 hrs; type: functional
[29] = T>MIC in healthy human at epithelial lining fluid MIC of 2 ug/ml and compound dose of 0.3 […], iv after 3 hrs; type: functional
[30] = T>MIC in healthy human at plasma MIC of 4 ug/ml and compound dose of 0.3 […], iv after 0.5 hrs; type: functional
[31] = T>MIC in healthy human at plasma MIC of 0.25 ug/ml and compound dose of 0.3 […], iv after 3 hrs; type: functional
[32] = T>MIC in healthy human at plasma MIC of 1 ug/ml and compound dose of 0.3 […], iv after 3 hrs; type: functional
[33] = AUC in epithelial lining fluid of healthy human at 0.3 […], iv after 0.5 hrs; type: ADME, organism-based; set-up: time < 0.5 hr, route intravenous
[34] = Drug level in epithelial lining fluid of healthy human at 0.3 […], iv after 3 hrs; type: ADME, organism-based; settings: read-out: Drug uptake

Cmax [2]: 2350 ng/mL
Tmax [5]: 0.5 h
Cmax [6]: 6800 ng/mL
Cmax [9]: 18100 ng/mL
AUC at 3 h [13]: 25400 ng·h/mL
AUC at 3 h [16]: 13300 ng·h/mL
concentration at 0.5 h [17]: 3480 ng/mL
Tmax [18]: 1.5 h
AUC at 0.5 h [20]: 25000 ng·h/mL
Tmax [22]: 1.8 h
Cmax [23]: 4360 ng/mL
Tmax [26]: 3 h
AUC at 0.5 h [33]: 6400 ng·h/mL
concentration at 3 h [34]: 1330 ng/mL
SMILES: C[C@@H](O)[C@H]1C(=O)N2C(C(=O)[O-])=C(SC3Cn4cnc[n+]4C3)[C@H](C)[C@H]12 (some centres undefined) [BIAPENEM]
fT>MIC [1]: 25.5%
fT>MIC [3]: 34.3%
fT>MIC [4]: 29.1%
fT>MIC [7]: 5.8%
fT>MIC [8]: 41.4%
fT>MIC [10]: 31.9%
fT>MIC [11]: 43.1%
fT>MIC [12]: 53.5%
fT>MIC [14]: 15.5%
fT>MIC [15]: 21.1%
fT>MIC [19]: 0%
fT>MIC [21]: 53.7%
fT>MIC [24]: 22.3%
fT>MIC [25]: 34.6%
fT>MIC [27]: 5.1%
fT>MIC [28]: 52.2%
fT>MIC [29]: 17.4%
fT>MIC [30]: 12.6%
fT>MIC [31]: 64.5%
fT>MIC [32]: 43.8%
